Data from ChEMBL document CHEMBL4011596, “Design, synthesis, and biological evaluation of a highly water-soluble psoralen-based photosensitizer” (Bioorg Med Chem, 2017).
The source made the active and inactive calls. No cut-off for these calls is given here.

Legend:
[1] = Induction of singlet oxygen production in DMSO assessed as decrease in DPBF level by measuring quantum yield after irradiation with halogen light by spectroscopic analysis relative to control; parameters: scale not given: the % may be the effect or the level left
BALB/3T3 [2] = experiment: Photocytotoxicity against mouse BALB/3T3 cells at >42 uM preincubated for 48 hrs followed by 3.3 J/cm2 UV light irradiation for 500 sec measured after 18 hrs by Alamar blue assay; type: functional, cell-based
BALB/3T3 [3] = experiment: Photocytotoxicity against mouse BALB/3T3 cells assessed as cell death at 2.9 uM preincubated for 48 hrs followed by 3.3 J/cm2 UV light irradiation for 500 sec measured after 18 hrs by Alamar blue assay relative to control; type: functional

SMILES	Activity [1]	Activity (BALB/3T3 [2])	Activity (BALB/3T3 [3])
COc1c2occc2c(Cn2cc(CO[C@@H]3O[C@H](CO)[C@@H](O)[C@H](O)[C@H]3O)nn2)c2ccc(=O)oc12	24%	Active	15%
O=c1ccc2cc3ccoc3cc2o1	17%	Active	–
COc1c2occc2c(Cn2cc(CO[C@@H]3O[C@H](CO)[C@H](O)[C@H](O)[C@H]3O)nn2)c2ccc(=O)oc12	24%	Active	–
